Type in all cases: in vivo
In data set [1] the test system is non-sensitized mice. Briefly: PMB (native and conjugated forms) induced lethality, i.p. To be noted: i.p. injection, lethality monitored for 7 days. On the procedure:
B. PMB (native and conjugated forms) induced lethality
PMB (native and conjugated forms) are evaluated for their inherent toxicity in non-sensitized mice. Male CB57BL/c mice (18-22 g, Jackson Labs) are used throughout this study. Animals are given either native PMB or conjugated PMB by intraperitoneal injection (0.5 ml/animal) and lethality monitored for 7 days. The LD100 is determined by varying the dose of PMB (native and conjugated forms) that result in 100% lethality. From 10-20 animals are used for each dose.

Data set [2] concerns endotoxin (0111B4). The data set is described as follows: PMB anti-endotoxin evaluations: protection from endotoxin-induced lethality in galactosamine-hypersensitized mice. On the procedure:
A. Endotoxin-induced lethality
Male CB57BL/c mice (18-22 g, Jackson Labs) are used throughout this study. Animals are given endotoxin (0111B4 from List Biologicals, Palo Alto, Calif.) and galactosamine to hypersensitize, as described in Galanos et al., 1979. Proc. Natl. Acad. Sci. USA 76: 5939. The endotoxin and galactosamine (320 mg/kg) are injected intraperitoneally in 0.5 ml pyrogen-free isotonic saline per animal between 13:00 and 15:00 to avoid diurnal variation. From a dose-response study, it is determined that 0.01 mg/kg endotoxin produces 85-95% lethality. Animals are observed each day for 6 days after injection.
C. PMB anti-endotoxin evaluations
PMB (native and conjugated forms) are evaluated for their ability to neutralize endotoxin by either pre-mixing with endotoxin for 60 minutes before i.p. injection or by coadministration of the substances as a single i.p. injection. While the concentration of the PMB (native and conjugated forms) are varied, the volume of each injection is kept constant at 0.5 ml per animal. The protection by the conjugated PMB was compared to the native PMB (in terms of mg protein/kg). Controls (endotoxin, galactosamine, and vehicle) are included as well in each study. Each group has between 10-17 animals. […]
The Therapeutic Index (TI) for PMB (native and conjugated) forms is determined by dividing the LD100 by the PD100. […]

The subject of data set [3] is normal test animal. The data set is described as follows: i.v. toxicity (LD0, LD100), lethality monitored over 7 days. An excerpt: LD0 is the highest non-toxic dose of PMB or its conjugate.
LD100 is the dose of PMB or its conjugated form which results in 90-100% lethality when injected into a normal test animal.
The "ultra pure" PMB-conjugate has a suprising reduction in toxicity as compared with native PMB. […] Comparisons in the table below are made between the highest non-toxic dose of PMB (native or conjugated)
^1 PMB (native or conjugate) given by i.v. injection and lethality
monitored over 7 days. LD0 is the highest nontoxic dose which can be
injected into a normal test animal.

For data set [4], the system named is E.coli 0111B4 endotoxin. The data set is described as follows: i.v. protection against LD90 endotoxin challenge (endotoxin-induced lethality test). The note with it: i.v. injection 1-3 minutes before an LD90 i.p. injection of E.coli 0111B4 endotoxin (0.5 μg/kg). On the procedure: The resulting "ultra pure" PMB-conjugate is compared to native PMB in an endotoxin-induced leathality test as described in Example 3C supra.
At 1 mg/kg i.v., the ultra-pure PMB-conjugate gave >70% protection against a LD90 endotoxin challenge for at least 6 hours. […] Therefore the PMB-conjugate is suitable for prophylactic use.
^2 PMB (native or conjugate) given by i.v. injection 1-3 minutes
before an LD90 i.p. injection of E.coli 0111B4 endotoxin (0.5

Turning to polymyxin B [Native PMB], the LD100 in data set [1] turned out to be 25 mg/kg; in data set [3] (i.v.), 9.5 mg/kg. Besides, the PD100 was 2 mg/kg in data set [2] (PMB or conjugate allowed to react with the endotoxin for 60 min before i.p. injection); 2 mg/kg in data set [2] (i.p., dose giving >95% survival, pre-mixing or coadministration with endotoxin not stated for the row); 0.1 mg/kg in data set [4]. Also, the “LD0 (highest non-toxic dose)” value in data set [3] (i.v. injection, lethality monitored over 7 days) stood at 5 mg/kg.

Values taken from US5177059A, “Polymyxin B conjugates” (Sandoz Ltd., priority 1990, dated 1993).
